From patent publication US20140045697A1, “ANDROSTANEDIOL DERIVATIVES AS PLANT GROWTH REGULATOR COMPOUNDS” (priority 2011, published 2014)

Experiments:
[1] = test system: Phaseolus vulgaris L. cv. Pinto; assay: Bean second and third internode elongation bioassay (glass house); assay type: in vivo; conditions: for % increase compared with control, Total elongation (internode 2 + internode 3) / % increase compared with control, Internode 2 / % increase compared with control, Internode 3: applied through wound site, scored after 10 days; for % increase compared with control, Internode 2 / % increase compared with control, Internode 3: 8 replicates; for elongation of internode 3 (in words) / elongation of internodes by rate (in words): Table 2; for elongation of internode 3 (in words): standard at low concentrations; for elongation of internodes by rate (in words): rates 6, 20 and 200 per plant
Method: Bean seeds of Phaseolus vulgaris L. cv. Pinto were germinated in drench soil in 140 ml pots; pots with 7-day old seedlings were thinned out to one seedling per pot. Young plants of 12-14 days with 2-3 mm long second internodes were used in bioassay screening experiments. Germination, early plant growth as well the screening of growth symptoms of young plants after application of compounds of formula (I) were done under similar glass house conditions: temperature 22° C. day/18° C. night, humidity 60%, day length 15 h day/9 h night. Plants were watered manually on a daily basis, as needed.
Compounds of formula (I) were applied through a wound site using a micropipette. The wound site was introduced through removal of one of the twin leaves of the first set of true leaves. Small amounts of compounds were delivered at a time. The wound site was sealed with […] of Vaseline that was applied using a cotton ear bud. Compounds of formula (I) were dissolved in 99% ethanol and for the control/check a similar volume was used as for all treatments and in this case, the solution only contained 99% ethanol. Dilutions of stock solutions were made with distilled water. Eight replicates were included per treatment, including for the control. The scoring of growth elongation effects was performed after 10 days.
Growth promotion of bean plants by compounds of formula (I) was tested by scoring elongation of the second and third internode of bean plants. Scoring of growth stimulation effects was done by careful cutting and measuring the length of the two internodes. All compounds were tested at three rates (in […] per plant): 6, 20 and 200. Values represent the average percentage increase in stem elongation compared with the untreated control.

maize = assay: Field trials on maize at 2 locations in South Africa (Kransfontein, Lindley), spray application at 5-6 leaf growth stage; assay type: in vivo; conditions: for Number of cobs per plot / Plant height 9-10 leaf stage / Plant height 10 leaf stage / Yield / Plant height 6-7 leaf stage / Plant height 9 leaf stage: mean of 6 replicates
Method: Field trials were carried out at 2 locations in South Africa on maize. Treatments as shown in tables 3 and 4 were applied by spray application at 5-6 leaf growth stage. Assessments were made of plant height, number of maize cobs per plot, and total maize yield at the end of the trial. The results in Table 3 and 4 are the mean of 6 replicates per treatment. The standard is an analog of the Formula I of the present invention, as described in WO2009/115060 (formula IV).

CO[C@]12C[C@H](O)CC[C@]1(C)[C@H]1CC[C@]3(C)[C@@H](O)CC[C@H]3[C@@H]1CC2=O [Compound P3, 5-methoxy-3α,17β-dihydroxyl-5α-androstan-6-one]
% increase compared with control, Total elongation (internode 2 + internode 3) ([1]; 6 μg per plant): 17%
% increase compared with control, Internode 2 ([1]; 6 μg per plant): 13%
% increase compared with control, Internode 3 ([1]; 6 μg per plant): 4%
% increase compared with control, Total elongation (internode 2 + internode 3) ([1]; 20 μg per plant): 54%
% increase compared with control, Internode 2 ([1]; 20 μg per plant): 6%
% increase compared with control, Internode 3 ([1]; 20 μg per plant): 48%
% increase compared with control, Total elongation (internode 2 + internode 3) ([1]; 200 μg per plant): 113%
% increase compared with control, Internode 2 ([1]; 200 μg per plant): 43%
% increase compared with control, Internode 3 ([1]; 200 μg per plant): 70%
elongation of internode 3 (in words) [1]: strong elongation of internode 3
elongation of internodes by rate (in words) [1]: elongation of both internodes at all three rates tested
Number of cobs per plot, % increase compared to untreated control (maize; Kransfontein, 0.3 g AI/ha): 0.5%
Plant height 9-10 leaf stage, % increase compared to untreated control (maize; Kransfontein, 0.3 g AI/ha): 6.4%
Plant height 10 leaf stage, % increase compared to untreated control (maize; Kransfontein, 0.3 g AI/ha): 3.8%
Yield, % increase compared to untreated control (maize; Kransfontein, 0.3 g AI/ha): 1.7%
Number of cobs per plot (maize; Kransfontein, 0.3 g AI/ha): 35.0
Plant height 9-10 leaf stage (maize; Kransfontein, 0.3 g AI/ha): 38.0 cm
Plant height 10 leaf stage (maize; Kransfontein, 0.3 g AI/ha): 49.5 cm
Yield (maize; Kransfontein, 0.3 g AI/ha): 4203.2 kg/ha
Number of cobs per plot, % increase compared to untreated control (maize; Kransfontein, 0.6 g AI/ha): 7.7%
Plant height 9-10 leaf stage, % increase compared to untreated control (maize; Kransfontein, 0.6 g AI/ha): 3.1%
Plant height 10 leaf stage, % increase compared to untreated control (maize; Kransfontein, 0.6 g AI/ha): 4.2%
Yield, % increase compared to untreated control (maize; Kransfontein, 0.6 g AI/ha): 2.3%
Number of cobs per plot (maize; Kransfontein, 0.6 g AI/ha): 37.5
Plant height 9-10 leaf stage (maize; Kransfontein, 0.6 g AI/ha): 36.8 cm
Plant height 10 leaf stage (maize; Kransfontein, 0.6 g AI/ha): 49.7 cm
Yield (maize; Kransfontein, 0.6 g AI/ha): 4227.3 kg/ha
Number of cobs per plot, % increase compared to untreated control (maize; Lindley, 0.3 g AI/ha): 2.0%
Plant height 6-7 leaf stage, % increase compared to untreated control (maize; Lindley, 0.3 g AI/ha): 4.8%
Plant height 9 leaf stage, % increase compared to untreated control (maize; Lindley, 0.3 g AI/ha): 5.9%
Yield, % increase compared to untreated control (maize; Lindley, 0.3 g AI/ha): 3.3%
Number of cobs per plot (maize; Lindley, 0.3 g AI/ha): 60.5
Plant height 6-7 leaf stage (maize; Lindley, 0.3 g AI/ha): 21.8 cm
Plant height 9 leaf stage (maize; Lindley, 0.3 g AI/ha): 32.3 cm
Yield (maize; Lindley, 0.3 g AI/ha): 1115.9 kg/ha
Number of cobs per plot, % increase compared to untreated control (maize; Lindley, 0.6 g AI/ha): 4.5%
Plant height 6-7 leaf stage, % increase compared to untreated control (maize; Lindley, 0.6 g AI/ha): 3.4%
Plant height 9 leaf stage, % increase compared to untreated control (maize; Lindley, 0.6 g AI/ha): 8.9%
Yield, % increase compared to untreated control (maize; Lindley, 0.6 g AI/ha): 3.1%
Number of cobs per plot (maize; Lindley, 0.6 g AI/ha): 62.0
Plant height 6-7 leaf stage (maize; Lindley, 0.6 g AI/ha): 21.5 cm
Plant height 9 leaf stage (maize; Lindley, 0.6 g AI/ha): 33.2 cm
Yield (maize; Lindley, 0.6 g AI/ha): 11099.4 kg/ha

CC(C)[C@@H](C)[C@@H](O)[C@H](O)[C@@H](C)[C@H]1CC[C@H]2[C@@H]3COC(=O)[C@H]4C[C@H](O)[C@H](O)C[C@]4(C)[C@H]3CC[C@]12C [Standard, 24-epi-brassinolide, reference compound]
% increase compared with control, Total elongation (internode 2 + internode 3) ([1]; 6 μg per plant): 154%
% increase compared with control, Internode 2 ([1]; 6 μg per plant): 150%
% increase compared with control, Internode 3 ([1]; 6 μg per plant): 4%
elongation of internode 3 (in words) [1]: almost no elongation of the third internode
Number of cobs per plot, % increase compared to untreated control (maize; Kransfontein, 0.3 g AI/ha): −4.3%
Plant height 9-10 leaf stage, % increase compared to untreated control (maize; Kransfontein, 0.3 g AI/ha): 1.7%
Plant height 10 leaf stage, % increase compared to untreated control (maize; Kransfontein, 0.3 g AI/ha): 2.1%
Yield, % increase compared to untreated control (maize; Kransfontein, 0.3 g AI/ha): −2.8%
Number of cobs per plot (maize; Kransfontein, 0.3 g AI/ha): 33.3
Plant height 9-10 leaf stage (maize; Kransfontein, 0.3 g AI/ha): 36.3 cm
Plant height 10 leaf stage (maize; Kransfontein, 0.3 g AI/ha): 48.7 cm
Yield (maize; Kransfontein, 0.3 g AI/ha): 4017.9 kg/ha
Number of cobs per plot, % increase compared to untreated control (maize; Kransfontein, 0.6 g AI/ha): −2.9%
Plant height 9-10 leaf stage, % increase compared to untreated control (maize; Kransfontein, 0.6 g AI/ha): 3.6%
Plant height 10 leaf stage, % increase compared to untreated control (maize; Kransfontein, 0.6 g AI/ha): 3.4%
Yield, % increase compared to untreated control (maize; Kransfontein, 0.6 g AI/ha): −3.6%
Number of cobs per plot (maize; Kransfontein, 0.6 g AI/ha): 33.8
Plant height 9-10 leaf stage (maize; Kransfontein, 0.6 g AI/ha): 37.0 cm
Plant height 10 leaf stage (maize; Kransfontein, 0.6 g AI/ha): 49.3 cm
Yield (maize; Kransfontein, 0.6 g AI/ha): 3985.2 kg/ha
Number of cobs per plot, % increase compared to untreated control (maize; Lindley, 0.3 g AI/ha): 1.1%
Plant height 6-7 leaf stage, % increase compared to untreated control (maize; Lindley, 0.3 g AI/ha): 3.4%
Plant height 9 leaf stage, % increase compared to untreated control (maize; Lindley, 0.3 g AI/ha): 1.6%
Yield, % increase compared to untreated control (maize; Lindley, 0.3 g AI/ha): 2.0%
Number of cobs per plot (maize; Lindley, 0.3 g AI/ha): 60.0
Plant height 6-7 leaf stage (maize; Lindley, 0.3 g AI/ha): 21.5 cm
Plant height 9 leaf stage (maize; Lindley, 0.3 g AI/ha): 31.0 cm
Yield (maize; Lindley, 0.3 g AI/ha): 10976.9 kg/ha
Number of cobs per plot, % increase compared to untreated control (maize; Lindley, 0.6 g AI/ha): 2.5%
Plant height 6-7 leaf stage, % increase compared to untreated control (maize; Lindley, 0.6 g AI/ha): 1.9%
Plant height 9 leaf stage, % increase compared to untreated control (maize; Lindley, 0.6 g AI/ha): 2.6%
Yield, % increase compared to untreated control (maize; Lindley, 0.6 g AI/ha): 1.2%
Number of cobs per plot (maize; Lindley, 0.6 g AI/ha): 60.8
Plant height 6-7 leaf stage (maize; Lindley, 0.6 g AI/ha): 21.2 cm
Plant height 9 leaf stage (maize; Lindley, 0.6 g AI/ha): 31.3 cm
Yield (maize; Lindley, 0.6 g AI/ha): 10890.5 kg/ha

C[C@]12CCC3[C@@H](CC(F)(F)[C@H]4C[C@H](O)CC[C@]34C)C1CC[C@@H]2O (stereo partly drawn) [Compound P2, 6α,6β-difluoro-3α,17β-diol-5α-androstan]
% increase compared with control, Total elongation (internode 2 + internode 3) ([1]; 6 μg per plant): 0%
% increase compared with control, Internode 2 ([1]; 6 μg per plant): 0%
% increase compared with control, Internode 3 ([1]; 6 μg per plant): 0%
% increase compared with control, Total elongation (internode 2 + internode 3) ([1]; 20 μg per plant): 160%
% increase compared with control, Internode 2 ([1]; 20 μg per plant): 50%
% increase compared with control, Internode 3 ([1]; 20 μg per plant): 110%
% increase compared with control, Total elongation (internode 2 + internode 3) ([1]; 200 μg per plant): 54%
% increase compared with control, Internode 2 ([1]; 200 μg per plant): 31%
% increase compared with control, Internode 3 ([1]; 200 μg per plant): 23%
elongation of internode 3 (in words) [1]: strong elongation of internode 3
elongation of internodes by rate (in words) [1]: at the highest two rates, but not at the lowest rate

C[C@]12CCC3[C@@H](CC(F)(F)[C@@]4(F)C[C@H](O)CC[C@]34C)C1CC[C@@H]2O (stereo partly drawn) [Compound P1, 5-Fluoro-6α,6β-difluoro-3α,17β-dihydroxy-5α-androstan]
% increase compared with control, Total elongation (internode 2 + internode 3) ([1]; 6 μg per plant): 0%
% increase compared with control, Internode 2 ([1]; 6 μg per plant): 0%
% increase compared with control, Internode 3 ([1]; 6 μg per plant): 0%
% increase compared with control, Total elongation (internode 2 + internode 3) ([1]; 20 μg per plant): 160%
% increase compared with control, Internode 2 ([1]; 20 μg per plant): 44%
% increase compared with control, Internode 3 ([1]; 20 μg per plant): 116%
% increase compared with control, Total elongation (internode 2 + internode 3) ([1]; 200 μg per plant): 108%
% increase compared with control, Internode 2 ([1]; 200 μg per plant): 30%
% increase compared with control, Internode 3 ([1]; 200 μg per plant): 78%
elongation of internode 3 (in words) [1]: strong elongation of internode 3
elongation of internodes by rate (in words) [1]: at the highest two rates, but not at the lowest rate
